Experimental data taken from the NIST ThermoML archive (doi:10.1016/j.fluid.2007.08.013).
“And” between values parts separate entries of the source, which are not always exact repeats. Identical values can stand only once.

Test: activity coefficient (dimensionless); of the first substance listed, at infinite dilution; xn = mol fraction of the nth substance listed
Settings: Liquid, x1 = 0

C1COCCO1 [1,4-dioxane] + O
Settings	activity coefficient
273.35 K, relative headspace analysis	3.53
278.15 K, relative headspace analysis	4
288.15 K, headspace analysis	5.17
288.15 K, relative headspace analysis	4.75
298.15 K, headspace analysis	5.88
308.15 K, headspace analysis	6.7
308.15 K, relative headspace analysis	6.15
318.15 K, relative headspace analysis	6.82
328.15 K, non steady state GLC	7.76
338.15 K, Chromatography	8.22
338.15 K, non steady state GLC	8.27
348.15 K, rayleigh distillation	8.43
372.5 K, circulation still	10.3

C1COCO1 [1,3-dioxolane] + O
Settings	activity coefficient
273.35 K, relative headspace analysis	8.13
278.15 K, relative headspace analysis	8.48
288.15 K, relative headspace analysis	9.12
298.15 K, relative headspace analysis	9.71
308.15 K, relative headspace analysis	10.2
318.15 K, Chromatography	10.6
328.15 K, Chromatography	10.9
338.15 K, non steady state GLC	11 and 11.4
348.15 K, Rayleigh distillation	11.3
372.55 K, circulation still	11.2

COCOC [dimethoxymethane] + O
Chromatography
Settings	activity coefficient
273.35 K	10.8
283.15 K	13.7
293.15 K	15.6
298.15 K	16.9
303.15 K	18
313.15 K	19.9
323.15 K	22
333.15 K	23.9

C1CCOCC1 [tetrahydropyran] + O
activity coefficient
Settings	273.35 K	283.15 K	288.15 K	298.15 K	308.15 K	318.15 K	328.15 K
Chromatography	–	–	58	70.5	83.4	96.2	108
relative headspace analysis	39.6	44.9	–	–	–	–	–

C1CCOC1 [tetrahydrofuran] + O
Settings	activity coefficient
273.35 K, classical headspace analysis	9.74
278.15 K, classical headspace analysis	11.1
288.15 K, Chromatography	14.3
298.15 K, Chromatography	17.6
308.15 K, Chromatography	20.6
318.15 K, Chromatography	24
328.15 K, non steady state GLC	26.8 and 28.1

COCCOC [1,2-dimethoxyethane] + O
Settings	activity coefficient
318.15 K, Chromatography	7.25
328.15 K, non steady state GLC	9.12 and 8.81
338.15 K, non steady state GLC	11.2 and 11.1
348.15 K, Rayleigh distillation	12.2
372.5 K, circulation still	14.9

CCOCC [diethyl ether] + O
Chromatography
Settings	activity coefficient
273.35 K	33.9
278.15 K	41.2
283.15 K	49.4
288.15 K	58.5
293.15 K	68.6
298.15 K	77.1
303.15 K	88.8
308.15 K	98.8
318.15 K	121
328.15 K	140
